For 22 compounds, Activity and growth results are on record in ChEMBL document CHEMBL3352746, “Synthesis and anticancer activity of quinopimaric and maleopimaric acids’ derivatives” (Bioorg Med Chem, 2014).

Active and inactive are the calls of the source. The calls are words filed in the database; no cut-off is given here.

What all share (type): functional
In experiment [1] the test system is NCI60. In words: (§1) Cytotoxicity against human NCI60 cells assessed as cell growth at 10 uM.
For experiment [2], the system named is SR. The experiment can be described thus: Cytotoxicity against human SR cells assessed as cell growth at 10 uM. Conditions: read-out: Activity.
Experiment [3] in a line: as §1. As to conditions: read-out: Activity.
In experiment [4] the test system is RPMI-8226. In words: Cytotoxicity against human RPMI8226 cells assessed as cell growth at 10 uM. Conditions: read-out: Activity.
Experiment [5] relates to HCC 2998. In words: Cytotoxicity against human HCC2998 cells assessed as cell growth at 10 uM. Conditions: read-out: Activity.
In experiment [6] the test system is T47D. The experiment can be described thus: Cytotoxicity against human T47D cells assessed as cell growth at 10 uM. Conditions: read-out: Activity.
In experiment [7] the test system is TK-10. The experiment can be described thus: Cytotoxicity against human TK10 cells assessed as cell growth at 10 uM. Conditions: read-out: Activity.
The nature of experiment [8]: Cytotoxicity against human HL60 cells assessed as cell growth at 10 uM. Conditions: HL-60, read-out: Activity.

Regarding `COC(=O)[C@]1(C)CCC[C@]2(C)[C@H]3C[C@H]4C(C(C)C)=C[C@]3(CC[C@H]21)[C@@H]1C(=O)[C@H]2O[C@H]2C(=O)[C@@H]14`, the outcome in experiment [1] was Active. Besides, the growth at 10 µM in experiment [2] amounted to 8.07%.
With `COC(=O)[C@]1(C)CCC[C@]2(C)[C@H]3C[C@H]4C(C(C)C)=C[C@]3(CC[C@H]21)[C@@H]1c2[nH]c3ccccc3c2-c2c([nH]c3ccccc23)[C@@H]14`, the growth at 10 µM in experiment [3] was over 32%.
Consider `COC(=O)[C@]1(C)CCC[C@]2(C)[C@H]3C[C@H]4C(C(C)C)=C[C@]3(CC[C@H]21)[C@@H]1/C(=N/O)CCC2(OCCO2)[C@@H]14`, for which, in experiment [1], the result was Active. Further, the growth at 10 µM is 3.94% in experiment [4], -9.91% in experiment [5] and 30.7% in experiment [6].
In the case of `COC(=O)[C@]1(C)CCC[C@@]2(C)[C@H]1CC[C@]13C=C(C(C)C)[C@H](C[C@H]21)C1=C3C(=O)C=CC1=O`, in experiment [1], the outcome was Active. The growth at 10 µM in experiment [2] came to 15.6%.
Consider `COC(=O)[C@]1(C)CCC[C@]2(C)[C@H]3C[C@H]4C(C(C)C)=C[C@]3(CC[C@H]21)[C@@H]1/C(=N/O)CC[C@H](O)[C@@H]14`, for which, in experiment [3], the growth at 10 µM is over 32%.
With `COC(=O)[C@]1(C)CCC[C@]2(C)[C@H]3C[C@H]4C(C(C)C)=C[C@]3(CC[C@H]21)[C@@H]1c2[nH]c3ccccc3c2CC(=O)[C@@H]14`, in experiment [3], the growth at 10 µM was over 32%.
In the case of `COC(=O)CCNC(=O)[C@]1(C)CCC[C@]2(C)[C@H]3C[C@H]4C(C(C)C)=C[C@]3(CC[C@H]21)[C@@H]1C(=O)CCC(=O)[C@@H]14`, the growth at 10 µM in experiment [3] is over 32%.
`COC(=O)[C@]1(C)CCC[C@]2(C)[C@H]3C[C@@H]4[C@H]5[C@@H]6CCC(=O)[C@H]5[C@@]3(CC[C@H]21)CC4(C(C)C)O6`: the growth at 10 µM in experiment [3] is over 32%.
Still for that read-out and setting: then `COC(=O)[C@]1(C)CCC[C@]2(C)[C@H]3C[C@H]4C(C(C)C)=C[C@]3(CC[C@H]21)[C@@H]1NC(=O)CCC2(OCCO2)[C@@H]14`, with over 32%; and `COC(=O)[C@]1(C)CCC[C@]2(C)[C@H]3C[C@H]4C5C[C@]3(CC[C@H]21)[C@@H]1/C(=N/O)CC[C@H](OC5(C)C)[C@@H]14`, with over 32%.
`COC(=O)CCNC(=O)[C@]1(C)CCC[C@]2(C)[C@H]3C[C@H]4C(C(C)C)=C[C@]3(CC[C@H]21)[C@@H]1C(=O)CC[C@H](O)[C@@H]14`: in experiment [3], the growth at 10 µM is over 32%.
In the case of `COC(=O)[C@]1(C)CCC[C@]2(C)[C@H]3C[C@@H]4[C@H]5[C@@H]6Cc7cnn(-c8ccccc8)c7[C@H]5[C@@]3(CC[C@H]21)CC4(C(C)C)O6`, the growth at 10 µM in experiment [3] was over 32%.
Regarding `CC(C)C1=C[C@@]23CC[C@@H]4[C@](C)(CCC[C@@]4(C)C(=O)O)[C@H]2C[C@@H]1[C@H]1C(=O)CCC(=O)[C@H]13`, the result in experiment [1] was Active. The growth at 10 µM in experiment [7] worked out at 28.4%.
On to `CC(C)C1=C[C@]23CC[C@@H]4[C@](C)(CCC[C@@]4(C)C(=O)O)[C@H]2C[C@H]1[C@H]1C(=O)OC(=O)[C@H]13`, for which, in experiment [3], the growth at 10 µM was over 32%.
`COC(=O)[C@]1(C)CCC[C@]2(C)[C@H]3C[C@H]4C5C[C@]3(CC[C@H]21)[C@@H]1C(=O)CC[C@H](OC5(C)C)[C@@H]14`: the growth at 10 µM in experiment [3] was over 32%.
The same measure, in the same setting: then `COC(=O)[C@]1(C)CCC[C@]2(C)[C@H]3C[C@@H]4[C@H]5[C@@H]6Cc7[nH]c(=S)[nH]c7[C@H]5[C@@]3(CC[C@H]21)CC4(C(C)C)O6`, with over 32%; and `COC(=O)[C@]1(C)CCC[C@]2(C)[C@H]3C[C@@H]4[C@H]5[C@@H]6Cc7cn[nH]c7[C@H]5[C@@]3(CC[C@H]21)CC4(C(C)C)O6`, with over 32%; and `COC(=O)[C@]1(C)CCC[C@]2(C)[C@H]3C[C@H]4C(C(C)C)=C[C@]3(CC[C@H]21)[C@@H]1NC(=O)CC[C@H](O)[C@@H]14`, with over 32%.
Turning to `COC(=O)[C@]1(C)CCC[C@]2(C)[C@H]3C[C@@H]4[C@H]5[C@@H]6Cc7c([nH]c8ccccc78)[C@H]5[C@@]3(CC[C@H]21)CC4(C(C)C)O6`, in experiment [3], the growth at 10 µM was over 32%.
Consider `COC(=O)[C@]1(C)CCC[C@]2(C)[C@H]3C[C@H]4C(C(C)C)=C[C@]3(CC[C@H]21)[C@@H]1C(=O)CCC2(OCCO2)[C@@H]14`, for which the outcome in experiment [1] was Active. The growth at 10 µM turned out to be 28.7% in experiment [8] and 31.2% in experiment [2].
`COC(=O)[C@]1(C)CCC[C@]2(C)[C@H]3C[C@@H]4[C@H]5[C@@H]6CC/C(=N\O)[C@H]5[C@@]3(CC[C@H]21)CC4(C(C)C)O6`: the growth at 10 µM in experiment [3] was over 32%.
For the compound `COC(=O)C(CCSC)NC(=O)[C@]1(C)CCC[C@]2(C)[C@H]3C[C@H]4C(C(C)C)=C[C@]3(CC[C@H]21)[C@@H]1C(=O)CC[C@H](OC(=O)CCC(=O)O)[C@@H]14` (stereo not given in full), in experiment [3], the growth at 10 µM is over 32%.
